In brackets after ≈: the same amount, converted by molar mass. Read-outs that look alike come from different tables or passages of the source. One block for each compound: values may come before it.
How the values were obtained:
Format in all cases: cell-based
C. albicans ATCC90028 = experiment: Antifungal activity test, MIC by broth microdilution (CLSI M27-A3); conditions: C. albicans ATCC90028, 35° C., 24-48 hours
Protocol: (§1) The Minimum Inhibitory Concentration (MIC) values of the present compound against yeast and filamentous fungi were determined by broth microdilution assay according to the Clinical Laboratory Standards Institute (CLSI) guidelines outlined in documents M27-A3 and M38-A2. The medium used in the assay consisted of RPMI1640 (with glutamine, without bicarbonate) with 2% glucose and 0.165 mol/L morpholinepropanesulfonic acid (MOPS) with pH adjusted to 7.0 using 1 mol/L sodium hydroxide. The present compound was dissolved in dimethyl sulfoxide (DMSO). A series of two-fold dilutions were prepared in DMSO, and then 2 μL of the diluted compound was added to each well in 96-well sterile plates. Each inoculum was prepared by diluting a suspension of Candida spp. or a conidia suspension of Aspergillus spp. suspended in sterile saline solution, and then 200 μL was added to each well to a predetermined concentration using RPMI/MOPS (final concentration for each solution: approximately 1×10^3 cells/mL and approximately 1×10^4 CFU/mL). Plates of Candida spp. and Aspergillus spp. were incubated at 35° C. for 24-48 hours. The MIC was defined as the lowest concentration giving 100% inhibition compared to the growth control.

A. flavus ATCC204304 = experiment: Antifungal activity test, MIC by broth microdilution (CLSI M38-A2); conditions: A. flavus ATCC204304, 35° C., 24-48 hours
Protocol: as §1

A. fumigatus ATCC204305 = experiment: as above; conditions: A. fumigatus ATCC204305, 35° C., 24-48 hours
Protocol: as §1

[1] = system: red blood cells (5% RBC suspension); experiment: Test Example 2-1: in vitro hemolytic activity test (upper limit 50, 80, 100 or 200 μmol/L); conditions: read-out: hemolysis IC50
Protocol: Nephrotoxic potentials of the compounds of the present invention except the compounds whose X is —N(R^F)—CO—X^1 and X^1 is the group represented by formula (III) and T is —N(R^a5)— were investigated by in vitro hemolytic activity test under the condition, in that, the upper limit was 50 μmol/L, 80 μmol/L, 100 μmol/L, or 200 μmol/L as the required concentration to 50% of hemolysis (IC50).
Defibrinated sterile blood was centrifuged at 700×g for 3 minutes and, and the supernatant was removed for 100% of red blood cells. After the cleaning with physiological saline, the washed blood cells was suspended in the medium (Earle's balanced salt sodium, bicarbonate, 0.1 g/L L-glutamine without phenol red), and was diluted by 5% (5% RBC suspension).
The washed blood was diluted by 5% in water for injection (solution of complete hemolysis), and was used as the indication of optical density for complete hemolysis.
The compounds of the present invention solution in DMSO (several and doubling dilutions starting from 2.5 mmol/L, 4 mmol/L, 5 mmol/L, or 10 mmol/L), DMSO as the negative control, and Amphotericin B as the positive control were used, and each 5 μL of these was added in to a well of V-form 96 well type microplate.
Finally, the maximum concentration of the compounds of the present invention solution in DMSO was 50 μmol/L, 80 μmol/L, 100 μmol/L, or 200 μmol/L by adding 245 μL of the medium or 5% RBC suspension into the well.
Two hundred fifty μL of the solution of complete hemolysis was added into another well and the microplate was incubated at 37° C. in 5% of CO2 concentration for an hour.
After the incubation, each 100 μL of supernatants in wells was collected by centrifugation of the microplate at 300×g for 5 minutes and was located on a well of flat-form 96 well type microplate. An absorbance of each supernatant was measured at wavelength of 540 nm.
Percent hemolysis was calculated by using the followed equation. The required concentration to 50% of hemolysis (IC50) was calculated based on the percent hemolysis. […] Hemolysis (%)=(CR−VM)×100÷(VL−VR) Where:
CR: Absorbance of 5% RBC suspension incubated with the compounds of the present invention solution in DMSO
VM: Absorbance of medium incubated with the compounds of the present invention solution in DMSO
VL: Absorbance of solution of complete hemolysis
VR: Absorbance of 5% RBC suspension incubated with DMSO
The “hemolysis method” in the table means any tests the upper concentration of above IC50 are 50 μmol/L, 80 μmol/L, 100 μmol/L or 200 μmol/L. The “>50”, “>80”, “>100” or “>200” in the table means above IC50 value exceeded the each upper concentration.

[2] = broth microdilution, 100% inhibition
[3] = lowest concentration giving 100% inhibition
[4] = hemolysis method 50 (upper concentration 50 μmol/L), 5% RBC suspension, 37° C., one hour
[5] = hemolysis method 100 (upper concentration 100 μmol/L), 5% RBC suspension, 37° C., one hour
[6] = hemolysis method 80 (upper concentration 80 μmol/L), 5% RBC suspension, 37° C., one hour

MIC (C. albicans ATCC90028; [2]): 0.25 µg/mL (≈ 0.245 µM)
MIC (A. flavus ATCC204304; [2]): 0.5 µg/mL (≈ 0.49 µM)
MIC (A. fumigatus ATCC204305; [2]): 1 µg/mL (≈ 0.979 µM)
Compound: C[C@@H]1[C@H](O)[C@@H](C)/C=C/C=C/C=C/C=C/C=C/C=C/C=C/[C@H](O[C@@H]2O[C@H](C)[C@@H](O)[C@H](N)[C@@H]2O)C[C@@H]2O[C@](O)(C[C@@H](O)C[C@@H](O)[C@H](O)CC[C@@H](O)C[C@@H](O)CC(=O)O[C@H]1C)C[C@H](O)[C@H]2NC(=O)NCC1CN(C)C1 [I-159]

MIC (C. albicans ATCC90028; [3]): 0.25 µg/mL (≈ 0.244 µM)
MIC (A. flavus ATCC204304; [3]): 0.5 µg/mL (≈ 0.489 µM)
MIC (A. fumigatus ATCC204305; [3]): 1 µg/mL (≈ 0.977 µM)
Compound: C[C@@H]1[C@H](O)[C@@H](C)/C=C/C=C/C=C/C=C/C=C/C=C/C=C/[C@H](O[C@@H]2O[C@H](C)[C@@H](O)[C@H](NC(=O)CN(C)C)[C@@H]2O)C[C@@H]2O[C@](O)(C[C@@H](O)C[C@@H](O)[C@H](O)CC[C@@H](O)C[C@@H](O)CC(=O)O[C@H]1C)C[C@H](O)[C@H]2NC(N)=O [I-325]

MIC (C. albicans ATCC90028; [2]): 0.25 µg/mL (≈ 0.247 µM)
MIC (A. flavus ATCC204304; [2]): 1 µg/mL (≈ 0.989 µM)
MIC (A. fumigatus ATCC204305; [2]): 1 µg/mL (≈ 0.989 µM)
Compound: C[C@@H]1[C@H](O)[C@@H](C)/C=C/C=C/C=C/C=C/C=C/C=C/C=C/[C@H](O[C@@H]2O[C@H](C)[C@@H](O)[C@H](N)[C@@H]2O)C[C@@H]2O[C@](O)(C[C@@H](O)C[C@@H](O)[C@H](O)CC[C@@H](O)C[C@@H](O)CC(=O)O[C@H]1C)C[C@H](O)[C@H]2NC(=O)NC(CN)CO (stereo partly shown) [I-169]

MIC (C. albicans ATCC90028; [2]): 0.25 µg/mL (≈ 0.247 µM)
MIC (A. flavus ATCC204304; [2]): 0.5 µg/mL (≈ 0.494 µM)
MIC (A. fumigatus ATCC204305; [2]): 1 µg/mL (≈ 0.988 µM)
Compound: C[C@@H]1[C@H](O)[C@@H](C)/C=C/C=C/C=C/C=C/C=C/C=C/C=C/[C@H](O[C@@H]2O[C@H](C)[C@@H](O)[C@H](N)[C@@H]2O)C[C@@H]2O[C@](O)(C[C@@H](O)C[C@@H](O)[C@H](O)CC[C@@H](O)C[C@@H](O)CC(=O)O[C@H]1C)C[C@H](O)[C@H]2NC(=O)NC[C@@H](O)CO [I-119]

Compound: C[C@@H]1[C@H](O)[C@@H](C)/C=C/C=C/C=C/C=C/C=C/C=C/C=C/[C@H](O[C@@H]2O[C@H](C)[C@@H](O)[C@H](N)[C@@H]2O)C[C@@H]2O[C@](O)(C[C@@H](O)C[C@@H](O)[C@H](O)CC[C@@H](O)C[C@@H](O)CC(=O)O[C@H]1C)C[C@H](O)[C@H]2NC(=O)NC1(C#N)COC1 [I-258]
IC50 [1, 4]: > 50 µM

Compound: C[C@@H]1[C@H](O)[C@@H](C)/C=C/C=C/C=C/C=C/C=C/C=C/C=C/[C@H](O[C@@H]2O[C@H](C)[C@@H](O)[C@H](NCc3cccnc3N)[C@@H]2O)C[C@@H]2O[C@](O)(C[C@@H](O)C[C@@H](O)[C@H](O)CC[C@@H](O)C[C@@H](O)CC(=O)O[C@H]1C)C[C@H](O)[C@H]2NC(=O)NCCN(C)C [I-328]
IC50 [1, 5]: > 50 µM

Compound: C[C@@H]1[C@H](O)[C@@H](C)/C=C/C=C/C=C/C=C/C=C/C=C/C=C/[C@H](O[C@@H]2O[C@H](C)[C@@H](O)[C@H](N)[C@@H]2O)C[C@@H]2O[C@](O)(C[C@@H](O)C[C@@H](O)[C@H](O)CC[C@@H](O)C[C@@H](O)CC(=O)O[C@H]1C)C[C@H](O)[C@H]2NC(=O)NCCc1c[nH]cn1 [I-5]
IC50 ([1]; Erythrocyte, 1 h, hemolysis method 100 (upper concentration 100 μmol/L), 5% RBC suspension, 37° C., one hour): 94 µM

Compound: C[C@@H]1[C@H](O)[C@@H](C)/C=C/C=C/C=C/C=C/C=C/C=C/C=C/[C@H](O[C@@H]2O[C@H](C)[C@@H](O)[C@H](N)[C@@H]2O)C[C@@H]2O[C@](O)(C[C@@H](O)C[C@@H](O)[C@H](O)CC[C@@H](O)C[C@@H](O)CC(=O)O[C@H]1C)C[C@H](O)[C@H]2NC(=O)NC(CO)Cc1c[nH]cn1 (stereo partly shown) [I-6]
IC50 [1, 5]: 75 µM

Compound: C[C@@H]1[C@H](O)[C@@H](C)/C=C/C=C/C=C/C=C/C=C/C=C/C=C/[C@H](O[C@@H]2O[C@H](C)[C@@H](O)[C@H](N)[C@@H]2O)C[C@@H]2O[C@](O)(C[C@@H](O)C[C@@H](O)[C@H](O)CC[C@@H](O)C[C@@H](O)CC(=O)O[C@H]1C)C[C@H](O)[C@H]2NC(=O)NCCC(N)=O [I-81]
IC50 [1, 4]: > 50 µM

Compound: C[C@@H]1[C@H](O)[C@@H](C)/C=C/C=C/C=C/C=C/C=C/C=C/C=C/[C@H](O[C@@H]2O[C@H](C)[C@@H](O)[C@H](N)[C@@H]2O)C[C@@H]2O[C@](O)(C[C@@H](O)C[C@@H](O)[C@H](O)CC[C@@H](O)C[C@@H](O)CC(=O)O[C@H]1C)C[C@H](O)[C@H]2NC(=O)N1CCC(N(C)C)C1 (single isomer, unassigned) [I-49]
IC50 [1, 6]: > 80 µM

Compound: C[C@@H]1[C@H](O)[C@@H](C)/C=C/C=C/C=C/C=C/C=C/C=C/C=C/[C@H](O[C@@H]2O[C@H](C)[C@@H](O)[C@H](N)[C@@H]2O)C[C@@H]2O[C@](O)(C[C@@H](O)C[C@@H](O)[C@H](O)CC[C@@H](O)C[C@@H](O)CC(=O)O[C@H]1C)C[C@H](O)[C@H]2NC(=O)NC1CN(C)C1 [I-62]
IC50 [1, 5]: 50 µM

Compound: C[C@@H]1[C@H](O)[C@@H](C)/C=C/C=C/C=C/C=C/C=C/C=C/C=C/[C@H](O[C@@H]2O[C@H](C)[C@@H](O)[C@H](N)[C@@H]2O)C[C@@H]2O[C@](O)(C[C@@H](O)C[C@@H](O)[C@H](O)CC[C@@H](O)C[C@@H](O)CC(=O)O[C@H]1C)C[C@H](O)[C@H]2NC(=O)NCCN(C)C [I-51]
IC50 [1, 6]: > 80 µM

Compound: C[C@@H]1[C@H](O)[C@@H](C)/C=C/C=C/C=C/C=C/C=C/C=C/C=C/[C@H](O[C@@H]2O[C@H](C)[C@@H](O)[C@H](N)[C@@H]2O)C[C@@H]2O[C@](O)(C[C@@H](O)C[C@@H](O)[C@H](O)CC[C@@H](O)C[C@@H](O)CC(=O)O[C@H]1C)C[C@H](O)[C@H]2c1nc(-c2ccc(N(C)C)cc2)no1 [I-390]
IC50 ([1]; Erythrocyte, 1 h): > 50 µM

Compound: CC1C=CC=CC=CC=CC=CC=CC=CC(OC2OC(C)C(O)C(N)C2O)CC2OC(O)(CC(O)CC(O)C(O)CCC(O)CC(O)CC(=O)OC(C)C(C)C1O)CC(O)C2NC(=O)NC1CCCC1O (stereo not shown) [I-207]
IC50 [1, 5]: > 100 µM

Compound: C[C@@H]1[C@H](O)[C@@H](C)/C=C/C=C/C=C/C=C/C=C/C=C/C=C/[C@H](O[C@@H]2O[C@H](C)[C@@H](O)[C@H](N)[C@@H]2O)C[C@@H]2O[C@](O)(C[C@@H](O)C[C@@H](O)[C@H](O)CC[C@@H](O)C[C@@H](O)CC(=O)O[C@H]1C)C[C@H](O)[C@H]2c1nc(-c2ccccc2)no1 [I-391]
IC50 ([1]; Erythrocyte, 1 h, hemolysis method 50 (upper concentration 50 μmol/L), 5% RBC suspension, 37° C., one hour): > 50 µM

Compound: C[C@@H]1[C@H](O)[C@@H](C)/C=C/C=C/C=C/C=C/C=C/C=C/C=C/[C@H](O[C@@H]2O[C@H](C)[C@@H](O)[C@H](N)[C@@H]2O)C[C@@H]2O[C@](O)(C[C@@H](O)C[C@@H](O)[C@H](O)CC[C@@H](O)C[C@@H](O)CC(=O)O[C@H]1C)C[C@H](O)[C@H]2NC(=O)N(O)C[C@@H](O)C(=O)O [I-295]
IC50 [1, 4]: > 50 µM

Compound: C[C@@H]1[C@H](O)[C@@H](C)/C=C/C=C/C=C/C=C/C=C/C=C/C=C/[C@H](O[C@@H]2O[C@H](C)[C@@H](O)[C@H](N)[C@@H]2O)C[C@@H]2O[C@](O)(C[C@@H](O)C[C@@H](O)[C@H](O)CC[C@@H](O)C[C@@H](O)CC(=O)O[C@H]1C)C[C@H](O)[C@H]2NC(=O)N1CCN(CCCOc2ccccc2)CC1 [I-24]
IC50 [1, 6]: > 80 µM

Source: patent publication US10696707B2, “Polyene macrolide derivative” (Shionogi & Co., Ltd., priority 2014, dated 2020)
